These results are taken from US20040229268A1, “Method and kit for identifying antibiotic-resistant microorganisms” (priority 2003, published 2004).

In this series the test system is mecA gene; rRNA (pan-bacterial probe). The series is described as follows: Hybridization Protection Assay (HPA), AE-labeled probes, thermally lysed specimens (Examples 1-2). It counts as binding, S. aureus. Here is the method:
The specimens were lysed by suspending approximately 5×10^8 cells in a lysis buffer (0.1% lithium lauryl sulfate, 1 mM EDTA, 20 mM lithium succinate, pH 5.5) and then incubating in a heat block set at 110° C. for 20 minutes. Thermal lysis of a variety of other specimens was effected under a range of temperature (heat block set at about 95° C. to 110° C.) and time (about 10 to 25 minutes) conditions. The lysed samples were tested for the presence of target sequences complementary to the probes using a Hybridization Protection Assay (HPA) as described by Arnold et al., in Clin. Chem. 35:1588(1989) and U.S. Pat. No. 6,004,745. 50 μl of the heat-treated suspension was incubated with an equal volume of AE-labeled probe in 2× hybridization buffer (1.2 M LiCl, 2% lithium lauryl sulfate, 20 mM EDTA, 20 mM EGTA, 100 mM lithium succinate, pH 5.5) at 60° C. for 30 minutes. The pH of succinate solutions may range from about 4.5 to about 5.5, although it is desirable to use a pH of 4.8 for succinate buffering. 300 μl of a selection reagent (0.6 M borate buffered solution, pH 8.5; note, pH may vary from 8.0 to 9.0) was added, the mixture was heated at 60° C. for 10 minutes to effect differential hydrolysis, and the samples were read in a GEN-PROBE® LEADER® luminometer using sequential 300 μl injections of 0.1% H2O2 and 1 N NaOH solutions (see Arnold et al, supra; GEN-PROBE® Detection Reagent Kit, Cat. No. 1791 may be used).
Procedures similar to those described in Example 1 were conducted using a large number of bacterial samples, except that parallel hybridization reactions employed a pan-bacterial probe which targeted rRNA (Probe Reagent 1, GEN-PROBE® MTC-NI Kit, catalog no. 4573). […] The pan-bacterial probe reagent served as a positive control for lysis of all of the specimens. In this procedure each sample was tested against a panel of the three probes contained in separate hybridization reactions. Aliquots of the samples tested using the pan-bacterial probe reagent were diluted 1:3000 prior to performing luminometry so that results fell within the linear range of the detector. The signals indicated lysis and detection of ribosomal nucleic acids in each of the samples. These values depended on the number of bacterial cells in the specimen, as well as on the extent of cell lysis and the release or accessibility of ribosomal nucleic acids from the cells to be detected by the pan-bacterial probe.

Regarding “CGCTATGATCCCAATCTAACTTCCACATACC (AE label, linker between 21 and 22, chemistry not fully specified; listed as Staphylococcus aureus) [Probe 2]”, the “AE-probe Average RLU” value (No Specimen) is on record as 3062 RLU; the “AE-probe Average RLU” value (S. aureus specimen #99, mecA PCR Pos) worked out at 8072 RLU; the “AE-probe Average RLU” value (S. aureus specimen #100, mecA PCR Neg) came to 5585 RLU. For the same sequence, the “AE-Probe Signal (RLU)” value runs as follows: (Table 2, Negative Control) 1931 RLU; (Table 2, specimen 10, mecA PCR Neg, pan-bacterial diluted 1:3000 prior to luminometry) 3274 RLU; (Table 2, specimen 99, mecA PCR Pos, pan-bacterial diluted 1:3000 prior to luminometry) 13021 RLU; (Table 2, specimen 100, mecA PCR Neg, pan-bacterial diluted 1:3000 prior to luminometry) 6186 RLU; (Table 2, specimen 101, mecA PCR Neg, pan-bacterial diluted 1:3000 prior to luminometry) 6266 RLU; (Table 2, specimen 102, mecA PCR Pos, pan-bacterial diluted 1:3000 prior to luminometry) 13065 RLU. Further, the “AE-Probe Signal (RLU)” value by setting is: (Table 2, specimen 103, mecA PCR Neg, pan-bacterial diluted 1:3000 prior to luminometry) 2366 RLU; (Table 2, specimen 104, mecA PCR Neg, pan-bacterial diluted 1:3000 prior to luminometry) 2000 RLU; (Table 2, specimen 105, mecA PCR Neg, pan-bacterial diluted 1:3000 prior to luminometry) 2714 RLU; (Table 2, specimen 106, mecA PCR Neg, pan-bacterial diluted 1:3000 prior to luminometry) 2989 RLU; (Table 2, specimen 139, mecA PCR Pos, pan-bacterial diluted 1:3000 prior to luminometry) 9563 RLU; (Table 2, specimen 140, mecA PCR Pos, pan-bacterial diluted 1:3000 prior to luminometry) 4967 RLU. Also, the “AE-Probe Signal (RLU)” value runs as follows: (Table 2, specimen 142, mecA PCR Pos, pan-bacterial diluted 1:3000 prior to luminometry) 10345 RLU; (Table 2, specimen 145, mecA PCR Neg, pan-bacterial diluted 1:3000 prior to luminometry) 2788 RLU; (Table 2, specimen 148, mecA PCR Pos, pan-bacterial diluted 1:3000 prior to luminometry) 15878 RLU; (Table 2, specimen 155, mecA PCR Neg, pan-bacterial diluted 1:3000 prior to luminometry) 2257 RLU; (Table 2, specimen 164, mecA PCR Neg, pan-bacterial diluted 1:3000 prior to luminometry) 3287 RLU; (Table 2, specimen 178, mecA PCR Pos, pan-bacterial diluted 1:3000 prior to luminometry) 12652 RLU. For the same sequence, the “AE-Probe Signal (RLU)” value came out at 20757 RLU (Table 2, specimen 188, mecA PCR Pos, pan-bacterial diluted 1:3000 prior to luminometry); 14965 RLU (Table 2, specimen 270, mecA PCR Pos, pan-bacterial diluted 1:3000 prior to luminometry); 10585 RLU (Table 2, specimen 296, mecA PCR Pos, Lab Pos control, pan-bacterial diluted 1:3000 prior to luminometry).
